According to article PMC3230704 (Molecular pharmaceutics, 2011):
Where no end group is shown, it is not given here.

Key:
MT1-MMP = conditions: cited from earlier work
MT1-MMP (MMP-14) = MT1-MMP (MMP-14) (Homo sapiens, UniProt P50281); experiment: Fluorescence activation of MT-P by activated MT1-MMP; type: biochemical; conditions: MT1-MMP 0, 4, 20 and 40 nM, 60 min, spectrofluorimetry
[1] = test system: MDA-MB-435 tumor-bearing mice; experiment: Ex vivo biodistribution imaging of excised tumors and organs; type: in vivo; conditions: 24 hrs post-injection, without inhibitor
MDA-MB-435 tumor = experiment: In vivo NIR fluorescence imaging of MT1-MMP-positive tumor-bearing mice

| activation of NIR fluorescent signals over the probe without MT1-MMP (MT1-MMP (MMP-14)) | Substance | specificity constant (kcat/Km) (MT1-MMP) | biodistribution of activated fluorescence [1] | onset of activation in tumor (MDA-MB-435 tumor; 5 nmol i.v., MDA-MB-435 tumor-bearing mice) | fluorescent signal in the tumor at 48 hrs post-injection (MDA-MB-435 tumor; 48 hrs post-injection) |
| --- | --- | --- | --- | --- | --- |
|  | RIGFLR | 777,200 M^−1s^−1 |  |  |  |
| up to 10 fold | GRIGFLRTAKGG [MT-P] |  | activated predominantly in the tumor and liver over other organs | less than 1 hr | not detectable |
